In paper PMC5874704, “In Silico Study, Synthesis, and Cytotoxic Activities of Porphyrin Derivatives” (Pharmaceuticals, 2018) one finds IC50 and melting point data, which are given here for eight compounds.

Bounds are passed on as bounds.

For data set [1], the system named is HeLa cell line. Description: MTT cytotoxicity test, HeLa. Particulars: Homo sapiens, 24 h treatment, triplicate, read-out: IC50 (μM) ± SD HeLa. Type of data set: cell-based. The procedure: (§1) The human epithelioid cervix carcinoma cell line (HeLa), human ductal breast epithelial tumor cell line (T47D), Michigan Cancer Foundation-7 cell line (MCF-7), human colon carcinoma cell line (WIDR), hepatoblastoma-derived cell line (HepG2), and Vero cell line (derived from kidney of African green monkey) were purchased from ATCC by the Faculty of Medicine Gadjah Mada University. The cell lines were cultured in Dulbecco’s Modified Eagle Medium (DMEM, Gibco), except for Vero cell line, which was cultured in Medium-199 (M-199, Gibco). Other chemicals, i.e., potassium dihydrogen phosphate, sodium chloride, potassium chloride, sodium hydrogen phosphate, dimethyl sulfoxide, sodium dodecyl sulphate, HEPES, sodium bicarbonate, and 3-(4,5-dimetiltiazol-2-il)-2,5-difeniltetrazolium bromide (MTT) were purchased from Sigma-Aldrich. Fetal bovine serum, trypsin-EDTA 0.25%, and penicillin-streptomycin were purchased from Gibco, whereas Amphotericin B was purchased from Caisson. Phosphate-buffered saline (PBS) was obtained by mixing 0.2 g of KH2PO4, 8 g of NaCl, 0.2 g of KCl, 1.15 g of Na2HPO4, and 1 L of distilled water.
(§2) Confluent cells in the Petri dish was harvested by removing the growth media in Petri dish and adding 1 mL of trypsin-EDTA […]. Then the cells was incubated at incubator 37 °C, 5% CO2 for about three minutes. The suspension of cells was put in centrifuge tube, 2 mL of growth media was added with 7 mL of PBS. The mixture was centrifuged for 10 min at 1200 rpm. The supernatant was separated and 2–3 mL of growth media was added to the pellet cell for counting cell. The cell suspense was cultured in 96-well plates (10,000 cells/well). After 24 h, the porphyrin derivative compounds with series concentration were added to treat the cell cultures for another 24 h. The cells were treated by MTT solution for four hours at incubator (37 °C, 5% CO2) and the reaction was stopped by stopper solution (SDS 10% HCl). The plate was incubated at room temperature in dark condition for 24 h. The living cells were counted by reading the absorbance at 595 nm. The corresponding IC50 values were calculated using non-linear regression analysis (GraphPad Prism 7.0.3). Each test was run in triplicate.

Data set [2] has as its system WIDR cell line. Description: MTT cytotoxicity test, WIDR. Type of data set: cell-based. The following applies: Homo sapiens, 24 h treatment, triplicate, read-out: IC50 (μM) ± SD WIDR. The protocol: as §1, §2
(Formazan colour is commonly taken as a measure of viable cells.)

The test system of data set [3] is HepG2 cell line. The data set is described as follows: MTT cytotoxicity test, HepG2. The data set is classed as cell-based. Particulars: Homo sapiens, 24 h treatment, triplicate, read-out: IC50 (μM) ± SD HepG2. The procedure: as §1, §2
Data set [4] concerns T47D cell line. The data set is described as follows: MTT cytotoxicity test, T47D. The data set is classed as cell-based. The following applies: Homo sapiens, 24 h treatment, triplicate, read-out: IC50 (μM) ± SD T47D. The procedure: as §1, §2
Data set [5] relates to MCF-7 cell line. The data set is described as follows: MTT cytotoxicity test, MCF-7. The data set is classed as cell-based. The following applies: Homo sapiens, MCF7, 24 h treatment, triplicate, read-out: IC50 (μM) ± SD MCF-7. The protocol: as §1, §2
The subject of data set [6] is Vero cell line. The data set is described as follows: MTT cytotoxicity test, Vero (normal cells). The data set is classed as cell-based, African green monkey. The following applies: Chlorocebus sabaeus, 24 h treatment, triplicate, read-out: IC50 (μM) ± SD Vero. The protocol:
as §1, §2

Regarding `CCOC(=O)COc1ccc(-c2c3nc(c(-c4cnn(C)c4)c4ccc([nH]4)c(-c4ccc(OCC(=O)OCC)c(OCC(=O)OCC)c4)c4nc(c(-c5cnn(C)c5)c5ccc2[nH]5)C=C4)C=C3)cc1OCC(=O)OCC` [DBECPDPzP, 5,15-di-[bis(3,4-ethylcarboxymethylenoxy)phenyl]-10,20-di-(methylpyrazole-4-yl)porphyrin], the IC50 (usually the concentration at which inhibition is half-maximal) is 941.9 ± 1.2 µM in data set [1]; 34.1 ± 1.1 µM in data set [2]; 31.7 ± 1.2 µM in data set [3]; 177.8 ± 1.2 µM in data set [4]; 64.2 ± 1.1 µM in data set [5]; 363.4 ± 1.1 µM in data set [6].

For `CCOC(=O)COc1ccc(-c2c3nc(c(-c4ccc(C)cc4)c4ccc([nH]4)c(-c4ccc(OCC(=O)OCC)c(OCC(=O)OCC)c4)c4nc(c(-c5ccc(C)cc5)c5ccc2[nH]5)C=C4)C=C3)cc1OCC(=O)OCC` [DBECPDTP, 5,15-di-[bis(3,4-ethylcarboxymethylenoxy)phenyl]-10,20-di(p-tolyl)porphyrin], the IC50 in data set [1] stood at 201.7 ± 1.3 µM; in data set [2], 33.5 ± 1.1 µM; in data set [3], 37.2 ± 1.1 µM; in data set [4], 166.7 ± 1.3 µM; in data set [5], 42.1 ± 1.1 µM; in data set [6], 372.2 ± 1.1 µM.

With `Nc1ccc(-c2c3nc(c(-c4ccc(N)cc4)c4ccc([nH]4)c(-c4ccc(N)cc4)c4nc(c(-c5ccc(N)cc5)c5ccc2[nH]5)C=C4)C=C3)cc1` [TAPP, 5,10,15,20-tetrakis(p-aminophenyl)porphyrin], the IC50 in data set [1] is 1007 ± 1.1 µM; in data set [2], 205.1 ± 1.2 µM; in data set [3] it was 36 ± 1.2 µM; in data set [4], 332.6 ± 1.2 µM; in data set [5] it was 262.2 ± 1.3 µM; in data set [6], 2264 ± 1.2 µM.

As to `Brc1ccc(-c2c3nc(c(-c4ccc(Br)cc4)c4ccc([nH]4)c(-c4ccc(Br)cc4)c4nc(c(-c5ccc(Br)cc5)c5ccc2[nH]5)C=C4)C=C3)cc1` [TBrPP, 5,10,15,20-tetrakis(p-bromophenyl)porphyrin], the melting point (as a rule, the temperature, or range, at which the solid turns liquid) is more than 300 °C. Also, in data set [1], the IC50 was found to be 595.6 ± 1.3 µM. Besides, the IC50 in data set [2] is 772.7 ± 1.3 µM. In addition, the half-maximal inhibitory concentration (IC50) in data set [3] was determined as 882.7 ± 1.2 µM. The concentration for half-maximal inhibition (IC50) in data set [4] worked out at 443.9 ± 1.1 µM. In addition, in data set [5], the IC50 came out at 870.6 ± 1.3 µM. The IC50 in data set [6] is 1176 ± 1.1 µM.

`Cc1ccc(-c2c3nc(c(-c4ccc(C)cc4)c4ccc([nH]4)c(-c4ccc(C)cc4)c4nc(c(-c5ccc(C)cc5)c5ccc2[nH]5)C=C4)C=C3)cc1` [TTP, 5,10,15,20-tetrakis(p-tolyl)porphyrin] had a melting point of more than 300 °C. Besides, the IC50 in data set [1] stood at 714.6 ± 1.1 µM. Also, the 50% inhibitory concentration (IC50) in data set [2] was found to be 969.8 ± 1.2 µM. The concentration for half-maximal inhibition (IC50) in data set [3] was determined as 1120 ± 1.3 µM. For the same compound, the half-maximal inhibitory concentration (IC50) in data set [4] was determined as 1241 ± 1.2 µM. Moreover, the 50% inhibitory concentration (IC50) in data set [5] turned out to be 1305 ± 1.3 µM. Besides, the 50% inhibitory concentration (IC50) in data set [6] is 15600 µM.

As for `Cc1ccc(-c2c3nc(c(-c4ccc(C)cc4)c4ccc([nH]4)c(-c4ccc(N)cc4)c4nc(c(-c5ccc(C)cc5)c5ccc2[nH]5)C=C4)C=C3)cc1` [TrTMAP, 5,10,15-tris(tolyl)-20-mono(p-aminophenyl)porphyrin], the melting point is more than 300 °C. For the same compound, the IC50 in data set [1] is 593.1 ± 1.2 µM. In addition, in data set [2], the IC50 turned out to be 835.4 ± 1.3 µM. Also, the IC50 in data set [3] stood at 107 ± 1.3 µM. The half-inhibitory concentration (IC50) in data set [4] was found to be 1099 ± 1.3 µM. The half-maximal inhibitory concentration (IC50) in data set [5] is 328.4 ± 1.4 µM. The IC50 in data set [6] amounted to 4784 ± 1.2 µM.

As to `Cc1ccc(-c2c3nc(c(-c4ccc(C)cc4)c4ccc([nH]4)c(-c4ccc([N+](=O)[O-])cc4)c4nc(c(-c5ccc(C)cc5)c5ccc2[nH]5)C=C4)C=C3)cc1` [TrTMNP, 5,10,15-tris(tolyl)-20-mono(p-nitrophenyl)porphyrin], the melting point is more than 300 °C. For the same compound, the IC50 in data set [1] worked out at 226.1 ± 1.1 µM. In data set [2], the 50% inhibitory concentration (IC50) worked out at 897.5 ± 1.1 µM. Besides, in data set [3], the IC50 was 146.6 ± 1.2 µM. Moreover, in data set [4], the IC50 is 5372 ± 1.4 µM. The 50% inhibitory concentration (IC50) in data set [5] was 505.2 ± 1.2 µM. In addition, the half-inhibitory concentration (IC50) in data set [6] was found to be 10100 µM.

With `CCOC(=O)COc1ccc(-c2c3nc(c(-c4ccc(OCC(=O)OCC)c(OCC(=O)OCC)c4)c4ccc([nH]4)c(-c4cnn(C)c4)c4nc(c(-c5cnn(C)c5)c5ccc2[nH]5)C=C4)C=C3)cc1OCC(=O)OCC` [cDBECPDPzP, 5,10-di-[bis(3,4-ethylcarboxymethylenoxy)phenyl]-15,20-di-(methylpyrazole-4-yl)porphyrin], the IC50 in data set [1] is 1083 ± 1.2 µM; in data set [2], 28.9 ± 1.1 µM; in data set [3], 28.6 ± 1.2 µM; in data set [4], 164.5 ± 1.2 µM; in data set [5], 47.9 ± 1.1 µM; in data set [6], 548.8 ± 1.2 µM.
